The values below come from article PMC4491176, “Caenorhabditis elegans is a useful model for anthelmintic discovery” (Nature Communications, 2015).

One data set has as its system C. elegans N2. The experiment in a line: 96-well liquid-based dose-response (in vivo LD100), wild-type worms. The settings on record: lowest concentration with no viable animals in four of four wells, 6 days after 20 L1 worms deposited. The method, then: (§1) The 96-well liquid-based chemical screening assay was adapted from an established RNAi screening protocol. Briefly, saturated HB101 Escherichia coli culture was concentrated 2-fold using NGM (nematode growth media) containing 3 mg ml^−1 NaCl, 2.5 mg ml^−1 peptone, 5 μg ml^−1 cholesterol, 1 mM CaCl2, 1 mM MgSO4 and 25 mM KH2PO4. A total of 40 μl of NGM+HB101 was dispensed into each well of a 96-well plate, and chemicals were pinned into the wells using a pinning tool with a 300 nl slot volume (V&P Scientific). Approximately 20 synchronized first larval-stage (L1) worms, in 10 μl of M9 buffer (see ref. [24] for the recipe), were then added to each well. The synchronized L1s were obtained from an embryo preparation (see ref. [24] for the protocol) performed the previous day. The final concentration of dimethyl sulfoxide (DMSO) in the wells was 0.6% v/v. A dissection microscope was used to visualize the wells either 5 or 6 days post worm deposition and any obvious chemical-induced phenotypes were noted.
(§2) The 96-well liquid-based assay was also used for all follow-up dose-response experiments in this work. These experiments were carried out in quadruplicate, and the total number of worms in each well was counted 6 days after worm deposition.

A further data set deals with T1, Mouse complex II (Mus musculus, UniProt Q9CQA3+Q9CXV1+Q9CZB0).
T1 construct: The livers from three 8–10-week-old C57Bl/6 female mice (Charles River) were removed; tissue Charles River (mice); host or cells: crude mitochondria from liver of C57Bl/6 female mice
T1 sequence (Q9CZB0 30-169): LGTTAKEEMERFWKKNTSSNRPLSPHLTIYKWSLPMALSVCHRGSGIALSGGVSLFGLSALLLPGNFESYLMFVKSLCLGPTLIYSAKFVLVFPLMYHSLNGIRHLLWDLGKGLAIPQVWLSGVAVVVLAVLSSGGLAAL
T1 sequence (Q9CQA3 31-282): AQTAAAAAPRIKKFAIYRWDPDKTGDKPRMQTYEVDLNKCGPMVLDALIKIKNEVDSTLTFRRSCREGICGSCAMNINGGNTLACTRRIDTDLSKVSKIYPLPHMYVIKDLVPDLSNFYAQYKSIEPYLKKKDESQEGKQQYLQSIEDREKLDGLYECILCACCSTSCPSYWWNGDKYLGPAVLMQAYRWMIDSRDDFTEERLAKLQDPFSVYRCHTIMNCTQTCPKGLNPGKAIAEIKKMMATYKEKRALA
T1 sequence (Q9CXV1 57-159): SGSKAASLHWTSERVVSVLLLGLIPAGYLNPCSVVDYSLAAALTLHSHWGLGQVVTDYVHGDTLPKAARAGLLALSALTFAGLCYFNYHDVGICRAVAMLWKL
T1 sequence (Q8K2B3 43-664 partner): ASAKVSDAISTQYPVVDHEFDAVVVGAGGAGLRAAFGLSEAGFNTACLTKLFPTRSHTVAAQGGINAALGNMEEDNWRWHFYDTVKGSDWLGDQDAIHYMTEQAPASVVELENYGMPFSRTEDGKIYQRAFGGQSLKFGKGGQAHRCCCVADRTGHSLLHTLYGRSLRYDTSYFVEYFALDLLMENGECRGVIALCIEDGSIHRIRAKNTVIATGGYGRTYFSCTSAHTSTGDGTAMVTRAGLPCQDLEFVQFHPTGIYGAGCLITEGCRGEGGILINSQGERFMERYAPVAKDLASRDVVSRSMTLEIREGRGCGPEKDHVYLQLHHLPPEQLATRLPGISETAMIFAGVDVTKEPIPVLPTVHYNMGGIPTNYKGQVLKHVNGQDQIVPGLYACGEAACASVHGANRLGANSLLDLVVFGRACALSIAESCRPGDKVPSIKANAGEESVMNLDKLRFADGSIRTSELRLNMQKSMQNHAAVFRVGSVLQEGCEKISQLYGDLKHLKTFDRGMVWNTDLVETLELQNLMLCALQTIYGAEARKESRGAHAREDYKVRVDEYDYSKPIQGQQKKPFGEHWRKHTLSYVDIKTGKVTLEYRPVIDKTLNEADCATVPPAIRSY
Put plainly: Cell-free Complex II functional assay, mouse liver mitochondria. In kind it is biochemical, M. musculus. The procedure:
The livers from three 8–10-week-old C57Bl/6 female mice (Charles River) were removed, collected in 1.5 ml microcentrifuge tubes, flash frozen in liquid nitrogen and stored at −80 °C until needed. Just before mitochondria isolation, the livers were weighed, placed into a 10-cm petri dish and 10 ml isolation buffer A was added per gram of liver tissue. The tissue was finely minced with a razor blade, transferred to a glass Dounce homogenizer and homogenized by 10 strokes on ice. The homogenate was centrifuged at 1,000g for 10 min at 4 °C. The supernatant was collected and centrifuged at 1,000g for 10 min at 4 °C. The supernatant was again collected and centrifuged at 16,000g for 10 min at 4 °C. The pellet was resuspended in 20 ml of isolation buffer B and centrifuged at 16,000g for 10 min at 4 °C. The pellet was resuspended in 20 ml of isolation buffer B, and 1 ml aliquots of the resuspension were distributed into 20 × 1.5 ml microcentrifuge tubes. The aliquoted resuspensions were centrifuged at 16,000g for 10 min at 4 °C. The supernatant was aspirated, the pellet was flash frozen in liquid nitrogen and stored frozen at −80 °C until needed. The mice used for experimentation were housed and used in accordance with ‘the use and care of experimental animals' guidelines. […]
Mitochondrial pellets were thawed on ice and resuspended in 300 μl of cold isolation buffer B. Using the BCA assay, the protein concentration of the mitochondria suspension was determined and was subsequently diluted to a concentration of 0.2 mg ml^−1 with cold isolation buffer B. Complex II enzymatic assays were carried out in 96-well flat bottom plates. […] Absorbance for each well was measured at 600 nm using a SpectraMax Plus 384-well Microplate Reader, combined with SoftmaxPro software at 30-s intervals over a 35-min time period. Absorbance versus time was plotted for each well and enzyme activity was calculated as the slope of the line defined by the points ranging from 4 to 10 min. Per cent activity was calculated by dividing the enzyme activity of the chemical-treated wells by that of the DMSO control wells. […]

The target in data set [1] is wild-type C. elegans complex II (Caenorhabditis elegans, UniProt O62215+P41956+Q09508+Q09545). Put plainly: biochemical. In kind it is biochemical.
Sequence of wild-type C. elegans complex II (O62215 whole entry): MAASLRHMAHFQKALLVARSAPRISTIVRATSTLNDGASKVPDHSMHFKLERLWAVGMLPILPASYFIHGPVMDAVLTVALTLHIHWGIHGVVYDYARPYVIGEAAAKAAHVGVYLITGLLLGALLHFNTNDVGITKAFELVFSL
Sequence of wild-type C. elegans complex II (Q09545 whole entry): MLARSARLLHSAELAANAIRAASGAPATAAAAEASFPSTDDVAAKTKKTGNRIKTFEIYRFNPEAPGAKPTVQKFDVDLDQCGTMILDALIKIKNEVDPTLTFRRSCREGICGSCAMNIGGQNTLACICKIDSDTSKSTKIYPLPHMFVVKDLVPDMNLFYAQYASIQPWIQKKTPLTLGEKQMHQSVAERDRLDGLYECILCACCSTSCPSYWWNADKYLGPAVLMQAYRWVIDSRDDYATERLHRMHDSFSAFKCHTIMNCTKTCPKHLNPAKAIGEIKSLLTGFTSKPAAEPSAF
Sequence of wild-type C. elegans complex II (Q09508 32-646): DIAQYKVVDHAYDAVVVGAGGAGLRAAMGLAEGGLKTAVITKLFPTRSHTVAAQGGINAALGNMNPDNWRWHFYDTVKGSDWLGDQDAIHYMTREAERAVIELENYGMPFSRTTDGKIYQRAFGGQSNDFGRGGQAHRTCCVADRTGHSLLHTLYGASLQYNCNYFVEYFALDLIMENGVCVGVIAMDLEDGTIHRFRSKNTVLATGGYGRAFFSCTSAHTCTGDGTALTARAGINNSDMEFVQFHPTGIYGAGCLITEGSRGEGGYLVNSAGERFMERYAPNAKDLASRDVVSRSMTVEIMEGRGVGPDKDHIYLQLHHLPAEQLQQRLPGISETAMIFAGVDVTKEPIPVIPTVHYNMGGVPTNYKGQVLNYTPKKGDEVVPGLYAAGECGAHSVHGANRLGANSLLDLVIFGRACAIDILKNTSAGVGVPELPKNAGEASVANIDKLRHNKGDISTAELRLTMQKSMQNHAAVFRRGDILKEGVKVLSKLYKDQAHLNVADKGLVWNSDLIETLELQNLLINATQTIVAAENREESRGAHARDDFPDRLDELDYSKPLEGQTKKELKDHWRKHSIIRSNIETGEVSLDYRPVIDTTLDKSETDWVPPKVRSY
Sequence of wild-type C. elegans complex II (P41956 whole entry): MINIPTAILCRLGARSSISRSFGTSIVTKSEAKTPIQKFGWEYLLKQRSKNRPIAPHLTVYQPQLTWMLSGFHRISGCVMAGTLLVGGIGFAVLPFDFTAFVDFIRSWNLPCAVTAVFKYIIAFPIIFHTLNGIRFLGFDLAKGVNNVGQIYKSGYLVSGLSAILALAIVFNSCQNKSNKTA
Data set [2] has as its system complex II from the parasitic nematode Ascaris suum. More on the design: method as in PMID 19724139, PMID 23333273. The settings on record: cited from earlier work.
A further data set has as its system C. onchophora. Put plainly: C. oncophora egg hatch chemical screen. In kind it is in vivo, Cooperia onchophora. More on the design: key: 1 = yes. The settings on record: 90-100% lethal at 7.5 or 60 μM. The method, then: (§3) Fresh cattle and sheep faeces containing eggs of an ivermectin-resistant strain of C. onchophora[39] and the MHco3(ISE) strain of H. contortus, respectively, were kindly supplied by Dr Doug Colwell and Dawn Gray (Lethbridge Research Station, Agriculture and Agri-Food Canada). Experimental infections used to generate this material were carried out using established methods, and were approved by the Lethbridge AAFC Animal Care committee and conducted under animal use license ACC1407. Cattle faeces containing C. onchophora eggs were stored anaerobically at 4 °C for a maximum of 3 weeks, whereas sheep faeces containing H. contortus eggs were stored at 20 °C for no more than 48 h before harvesting eggs for use. Eggs were isolated from faeces using a standard saturated salt flotation method[42] immediately before each egg hatch assay. Approximately 100 eggs suspended in 100 μl of water were added to each well of a 96-well plate, and the wactive library chemicals were screened at two different concentrations (7.5 and 60 μM, 0.6% DMSO v/v). Baseline egg hatch rates were determined in DMSO control wells ∼48 h after the initial set-up of the assay by the addition of iodine tincture to stop development. […] A dissection microscope was used for visualization purposes.

Data set [3] has as its system wact-11-family resistant C. elegans mutants (RP2674, RP2698 and others). Put plainly: 96-well liquid-based dose-response (in vivo LD100), wact-11-family resistant mutants. As to conditions: for Resistance of wact-11-family resistant mutants to compound-induced lethality (in words): liquid dose-response of resistant mutants versus N2; for In vivo LD100: 6 days. The method, then:
as §1, §2

Another data set has as its system HEK293T cells. Put plainly: HEK293 cell proliferation (BrdU) chemical screening. In kind it is cell-based. The settings on record: 60 μM, BrdU normalized signal <0.16. The procedure: HEK293T cells (Attisano Lab, University of Toronto) were maintained in Dulbecco's Modified Eagle's Medium (Gibco) supplemented with 10% FBS (DMEM-10% FBS). Cells at a concentration of 50 cells μl^−1 were seeded into 96-well plates at a final volume of 100 μl (∼5,000 cells per well). Chemicals from the wactive library were added to the wells for a final concentration of 60 μM (0.6% DMSO v/v). The wactive library plates were screened at least in triplicate. Cell proliferation was determined using a bromodeoxyuridine (BrdU) assay kit (Exalpha Biologicals Inc.). The BrdU was added 2 days after chemical addition. Fixation and denaturation was performed ∼16–18 h later. Anti-BrdU antibody was added, and incorporated BrdU was detected using a horseradish peroxidase-conjugated goat anti-mouse antibody. The BrdU incorporation signal was measured at 450/550 nm for the amount of conversion of tetra-methylbenzidine that is proportional to the amount of BrdU incorporated. For each replicate of each plate, the average signal for the DMSO control wells was calculated. For each well in the plate (including the DMSO control wells), the signal was normalized by dividing by the average DMSO signal. The mean and standard deviation for the population of 960 normalized sample signals of the 10-plate wactive library were calculated and found to be […] and 0.44, respectively.

Data set [4] deals with three nematode species, zebrafish and HEK cells. Put plainly: Grouping by phylogenetic bioactivity profile (multi-organism screening pipeline). As to conditions: nematode selectivity and cross-species lethality group. More on the design: key: Group 1 molecules are lethal to only one or two of the three nematode species tested, but are non-lethal to zebrafish and HEK cells.; Group 2 molecules are lethal to all three nematode species, but are non-lethal to zebrafish and human cells.; Group 3 molecule are lethal to fish or HEK cells, regardless of their nematode bioactivity profile. The source says: To further characterize our 275 C. elegans-lethal molecules, we organized them into three separate groups based on their phylogenetic bioactivity profiles (Fig. 2a). Group 1 contains 102 molecules that are lethal to only one or two of the three nematode species tested, but are non-lethal to zebrafish and HEK cells. Group 2 contains 67 compounds that are lethal to all three nematode species, but are non-lethal to zebrafish and human cells. Group 3 contains the remaining 106 compounds that are lethal to fish or HEK cells, and have varied bioactivity in different nematode species. In particular, the 67 molecules in group 2 represent potentially ideal anthelmintic leads; they have activity across multiple nematode species, and appear not to affect vertebrates.

The next data set concerns C. elegans. The experiment in a line: C. elegans liquid-based chemical screening of the wactive library. In kind it is in vivo, Caenorhabditis elegans. The arrangement: key: 1 = yes. The procedure: as §1
For our preliminary screens, 50,596 out of 67,012 compounds were assayed in liquid at a 60 μM concentration, and the other 16,416 molecules were screened on solid media at 25 μM (see ref. [24] for a description of our solid-based screening method). […]

The test system of the next data set is D. rerio. Put plainly: Zebrafish embryo chemical screening. The settings on record: embryos, 10 μM, death or toxicity at 24 and 48 h post fertilization. In kind it is in vivo, Danio rerio (zebrafish). The procedure: Wild-type (AB) zebrafish embryos were collected in E3 solution (5 mM NaCl, 0.17 mM KCl, 0.33 mM CaCl2, 0.33 mM MgSO4) immediately after fertilization and arrayed at three embryos per well in 96-well plates, 200 μl per well. Wild-type (AB) zebrafish were originally obtained from Zebrafish International Resource Center (University of Oregon). Chemicals were added to each well at 6 h post fertilization at a final concentration of 10 μM (0.5% v/v DMSO), with each plate containing nine wells of DMSO controls. Embryos were examined for mortality and observable developmental phenotypes at 24 and 48 h post fertilization using an Olympus SZX10 Brightfield microscope. Phenotypes examined were death, developmental delay, reduced pigmentation, cranial oedema or cardiac defects (slow/absent heart rate, abnormal heart size). Each compound was screened in duplicate, with only phenotypes appearing in both replicates associated with a given compound. Any compound producing multiple, distinct phenotypes across replicates (for example, cardiac defects in one replicate, mortality in another) was labelled ‘toxic'. A molecule was considered ‘lethal' to zebrafish if it induced ‘death' or ‘toxicity'.

Another data set concerns H. contortus. The experiment in a line: H. contortus egg hatch chemical screen. In kind it is in vivo, Haemonchus contortus. The settings on record: 90-100% lethal at 7.5 or 60 μM. The procedure: as §3
Data set [5] addresses C. elegans complex II with SDHC-1(R74K) missense mutation (Caenorhabditis elegans, UniProt O62215+P41956+Q09508+Q09545, R74K). Put plainly: Cell-free Complex II functional assay, mitochondria from wact-11-resistant mutants RP2674 and RP2698. In kind it is biochemical.
Where [6] appears, read: C. elegans strain RP2674 (SDHC R74K).
Where [7] appears, read: C. elegans strain RP2698 (SDHC R74K).
The mark [8] stands for this setting: M. musculus, C57Bl/6 liver mitochondria, read-out: In vitro Complex II IC50.
Where [9] appears, read: read-out: In vitro Complex II IC50, C. elegans, strain RP2674, SDHC R74K.
[10] abbreviates: read-out: In vitro Complex II IC50, C. elegans, strain RP2698, SDHC R74K.

Where two headings read alike, the source gives them in different places. Where only a bound is given, the exact number is not on record here.

Sequence of C. elegans complex II with SDHC-1(R74K) missense mutation (O62215 whole entry): as the sequence (O62215 whole entry) above
Sequence of C. elegans complex II with SDHC-1(R74K) missense mutation (P41956 whole entry R74K): as the sequence (P41956 whole entry) above, with R74K counted along it
Sequence of C. elegans complex II with SDHC-1(R74K) missense mutation (Q09508 32-646): as the sequence (Q09508 32-646) above
Sequence of C. elegans complex II with SDHC-1(R74K) missense mutation (Q09545 whole entry): as the sequence (Q09545 whole entry) above

As to `COc1[nH]c(=O)c(C(=O)[C@@H](C)C[C@H](C)[C@@H](Cl)CCl)c(O)c1OC` [Atpenin A5], the “In vivo LD100” value in the data set with C. elegans N2 is >120 µM. Moreover, the IC50 (usually the concentration that gives 50% inhibition) at Mouse complex II worked out at 0.593 µM.
With `CC(C)Oc1cccc(NC(=O)c2ccccc2C(F)(F)F)c1` [Flutolanil], the “In vivo LD100” value in the data set on C. elegans N2 is >120 µM. Also, half-maximal inhibition in [1] (IC50) was put at 0.311 µM. Moreover, the “Inhibition of Ascaris suum complex II in vitro (in words)” value in [2] was “inhibit”.
Turning to `Brc1ccc(-c2noc(-c3cccs3)n2)cc1` [wact-2], in the data set on C. onchophora, the “C. onchophora Lethal (1 = yes)” value was determined as 1. Besides, the “Resistance of wact-11-family resistant mutants to compound-induced lethality (in words)” value in data set [3] is recorded as “not”. For the same compound, the “HEK Cell Growth Decrease (1 = yes)” value in the data set on HEK293T cells came to 0. Also, the “Group # (Bioactivity Group #)” value in data set [4] is listed as 1. For the same compound, the “C. elegans Lethal (1 = yes)” value in the data set with C. elegans (100% lethality at 60 μM or less) is listed as 1. The “Wactive (1 = yes)” value with C. elegans (induces obvious phenotype in C. elegans at 60 μM or less) turned out to be 1. Further, the “D. rerio Lethal (1 = yes)” value in the data set with D. rerio stood at 0. In addition, in the data set on H. contortus, the “H. contortus Lethal (1 = yes)” value is reported as 0.
On to `O=C(NCCc1ccc(Cl)cc1)c1ccccc1C(F)(F)F` [wact-11], for which the figures for the “In vivo LD100” value (in the data set on C. elegans N2; in data set [3] (setting [6]); in data set [3] (setting [7])) were 7.5 µM, >120 µM and >120 µM, respectively. Further, the IC50 was 0.0074 µM in data set [1]; > 10 µM on Mouse complex II (setting [8]); > 10 µM in data set [5]; > 10 µM in data set [5] (setting [9]); > 10 µM in data set [5] (setting [10]). Moreover, the “Resistance of wact-11-family resistant mutants to compound-induced lethality (in words)” value in [3] was “at least some resistance”. Also, the “Group # (Bioactivity Group #)” value in data set [4] was 2.
With `CCc1ccc(OCCNC(=O)c2ccccc2I)cc1` [wact-12], the “In vivo LD100” value in the data set with C. elegans N2 was 7.5 µM; in data set [3] (setting [6]) it was >120 µM; in data set [3] (setting [7]), >120 µM. Further, the IC50 was 0.0057 µM in data set [1]; > 10 µM on Mouse complex II (setting [8]); > 10 µM in [5]; > 10 µM in [5] (setting [9]); > 10 µM in data set [5] (setting [10]). The “Group # (Bioactivity Group #)” value in [4] stood at 2.
